Columns and labels:
[1] = test system: blood cells in fresh venous whole blood samples (HCT 48%); experiment: Evaluation of hemolytic effect of hemolytic reagents (first absorbance/turbidity); assay type: cell-based; conditions: for first absorbance: 750 nm, below 0.05 = hemolytic effect; for hemolytic effects on the blood cells in the blood sample: in most concentration ranges
Method: To select hemolytic reagents with a hemolytic effect capable of lysing the blood cells in a blood sample, five candidate hemolytic reagents were selected. Each candidate hemolytic reagent was applied to fresh venous whole blood samples (HCT 48%). The background measurement values (i.e., the first turbidity or first absorbance) of samples treated with each candidate hemolytic reagent were measured. Specifically, the first absorbance of the samples was measured at a wavelength of 750 nm using the A1Care Analyzer by i-SENS, Inc.
The five candidate hemolytic reagents are listed below Table 1. […] A candidate hemolytic reagent was evaluated to have a hemolytic effect on the blood sample if the first turbidity of the sample was below 0.05.

[2] = test system: immune reaction between CRP and Anti-CRP antibodies; experiment: Evaluation of antigen-antibody reactivity by hemolytic reagents (second absorbance, 7-Level CRP Serum Samples)
Method: The concentrations of each candidate hemolytic reagent were determined as follows Table 2, taking into account the sample influence, including hematocrit.
Furthermore, each candidate hemolytic reagent was applied to 7-Level CRP Serum Samples, followed by an immune reaction between the hemolyzed samples and latex particles coated with Anti-CRP antibodies. Specifically, latex particles coated with Anti-CRP antibodies supplied by RANDOX were concentrated and stabilized with the addition of a stabilizer. The immune reaction was configured to occur between the hemolyzed samples and the latex particles coated with Anti-CRP antibodies.
After the immune reaction, the absorbance of each sample after the immune reaction (referred to as the second absorbance or second turbidity) was measured. Specifically, the second absorbance of the samples was measured at a wavelength of 750 nm using the A1Care Analyzer by i-SENS, Inc.
As for the control group, the experiment was designed to measure the second absorbance after the immune reaction between the 7-Level CRP Serum Samples without the addition of any hemolytic reagent and the latex particles coated with Anti-CRP antibodies. Additionally, the concentrations of the 7-Level CRP Serum Samples were varied from 0 to 195.8 mg/L, and the second absorbance was measured for each sample.

[3] = test system: immunoreagent (R2) containing Anti-CRP antibodies (latex particles coated with Anti-CRP antibodies); experiment: Accelerated stability by stabilizers (2), 50° C., 7 days, 3-Level CRP Serum Samples; assay type: physicochemical; conditions: 100 mM
Method: To select a stabilizer for ensuring the storage stability of the immunoreagent (R2) containing Anti-CRP antibodies, two candidate stabilizers (Trehalose and Sucrose) with confirmed through Experimental Example 4 storage stability effects were prepared. Each candidate stabilizer was added to latex particles coated with Anti-CRP antibodies and dried. The reagent solution and 3-Level CRP Serum Samples (CRP 10 mg/L, 50 mg/L, 150 mg/L) were added to the dried compositions, and the immune reaction between CRP and Anti-CRP antibodies was carried out. After the immune reaction, the absorbance was measured to obtain the baseline measurement value of storage on day 0.
Each candidate stabilizer was added to latex particles coated with Anti-CRP antibodies, and the dried compositions were stored in an oven at 50° C. The reagent solution was stored separately under refrigeration. At 1-day intervals over a period of 7 days, the reagent solution and 3-Level CRP Serum Samples (CRP 10 mg/L, 50 mg/L, 150 mg/L) were added to the dried compositions containing each candidate stabilizer. The immune reaction between CRP and Anti-CRP antibodies was conducted, and the absorbance after the immune reaction was measured to obtain the measurement values for storage days 1, 2, 3, 4, 5, 6, and 7.
Based on the baseline measurement value and the measurement values obtained during the storage period, deviations (Bias) were calculated.
Additionally, for each condition, the experiment was repeated 5 times, and precision (CV) was calculated.
The two candidate stabilizers are listed below Table 5, and stabilizers with deviations (Bias) measured within 20% throughout the storage period were evaluated as effective for ensuring the storage stability of the immunoreagent (R2). Stabilizers with precision (CV) measured within 10% were evaluated as having excellent precision.

[4] = test system: immunoreagent (R2) containing Anti-CRP antibodies (latex particles coated with Anti-CRP antibodies); experiment: Accelerated stability by stabilizers (1), 50° C., 7 days, 1-Level CRP Serum Sample; assay type: physicochemical; conditions: stabilizer concentrations as in Table 4
Method: To select a stabilizer that ensures the storage stability of the immunoreagent (R2) containing Anti-CRP antibodies, five candidate stabilizers were chosen. Each candidate stabilizer was added to latex particles coated with Anti-CRP antibodies and dried. The reagent solution and 1-Level CRP Serum Sample (CRP 60 mg/L) were added to the dried composition to facilitate the immune reaction between CRP and Anti-CRP antibodies. After the immune reaction, the absorbance was measured to obtain the baseline measurement value for storage on day 0. […]
Furthermore, the dried compositions, containing each candidate stabilizer added to latex particles coated with Anti-CRP antibodies, were stored in an oven at 50° C. […] The immune reaction between CRP and Anti-CRP antibodies was carried out, and the absorbance after the immune reaction was measured to obtain the measurement values for storage days 1, 2, 3, 4, 5, 6, and 7.
As for the control group, the experiment was configured to measure the absorbance after the immune reaction between the 1-Level CRP Serum Sample (CRP 60 mg/L) without the addition of any stabilizer and latex particles coated with Anti-CRP antibodies.
Furthermore, deviations (Bias) were calculated based on the baseline measurement value and the measurement values obtained over the storage period. […]

[5] = CRP Serum (50 mg/L, Mid), up to storage day 7
[6] = CRP Serum (150 mg/L, High), up to storage day 7

deviation (Bias) compared to baseline on day 0 [3, 5]	deviation (Bias) compared to baseline on day 0 [3, 6]	dissolution of the dried Anti-CRP antibodies (visually confirmed) [4]	Compound	hemolytic effects on the blood cells in the blood sample [1]	other results
–	–	–	CCCCCCCCCCCCCC(=O)NCCC[N+](C)(C)CCCS(=O)(=O)[O-] [ASB-14]	exhibited hemolytic effects	first absorbance ([1]; reagent concentration range 0.01-0.03 (w/v %)): greater than 0.05; first absorbance ([1]; reagent concentration range 0.04-0.20 (w/v %)): less than 0.05; decrease of absorbance corresponding to the CRP concentration compared to the control group ([2]; 750 nm, 0.05% ASB-14, CRP serum 0 to 195.8 mg/L): ≥ 50%
≤ 20%	≤ 20%	dissolved properly	OC[C@H]1O[C@@](CO)(O[C@H]2O[C@H](CO)[C@@H](O)[C@H](O)[C@H]2O)[C@@H](O)[C@@H]1O [Sucrose]	–	deviation (Bias) compared to baseline on day 0 ([3]; CRP Serum (10 mg/L, Low), up to storage day 7): ≤ 20%
≤ 20%	≤ 20%	dissolved properly	OC[C@H]1O[C@H](O[C@H]2O[C@H](CO)[C@@H](O)[C@H](O)[C@H]2O)[C@H](O)[C@@H](O)[C@@H]1O [Trehalose]	–	deviation (Bias) compared to baseline on day 0 ([3]; CRP Serum (10 mg/L, Low), storage days 5 and 7): > 20%
–	–	–	Sodium deoxycholate [SDC]	exhibited hemolytic effects	first absorbance ([1]; reagent concentration range 0.10-0.11 (w/v %)): greater than 0.05; first absorbance ([1]; reagent concentration range 0.12-0.20 (w/v %)): less than 0.05; effect of the hemolytic reaction on the antigen-antibody reaction between CRP and Anti-CRP antibodies ([2]; 0.13% SDC, 0.03% Saponin): did not affect the antigen-antibody reaction

Reference: patent publication US20250271421A1, “KIT FOR QUANTITATIVE ANALYSIS OF C-REACTIVE PROTEIN, METHOD FOR QUANTITATIVE ANALYSIS OF C-REACTIVE PROTEIN, AND APPARATUS FOR PERFORMING THE SAME” (I-sens, Inc., priority 2024, published 2025)
